Ten molecules from ChEMBL document CHEMBL1139145, “Inhibition of cancer cell adhesion by heterochiral Pro-containing RGD mimetics” (Bioorg Med Chem Lett, 2007) can be followed below.

This assay addresses Integrin alpha-V/beta-3 (Homo sapiens, UniProt P05106+P06756). In words: Inhibition of integrin alpha-v-beta-3 receptor-mediated human SK-MEL-24 cell adhesion to fibronectin by fluorimetry. It is filed as protein-complex assay.

The structures appear in SMILES notation. Residues, ends and D or L forms follow the SMILES beside them.

Chain of Integrin alpha-V/beta-3 (P05106 27-788 limits assumed): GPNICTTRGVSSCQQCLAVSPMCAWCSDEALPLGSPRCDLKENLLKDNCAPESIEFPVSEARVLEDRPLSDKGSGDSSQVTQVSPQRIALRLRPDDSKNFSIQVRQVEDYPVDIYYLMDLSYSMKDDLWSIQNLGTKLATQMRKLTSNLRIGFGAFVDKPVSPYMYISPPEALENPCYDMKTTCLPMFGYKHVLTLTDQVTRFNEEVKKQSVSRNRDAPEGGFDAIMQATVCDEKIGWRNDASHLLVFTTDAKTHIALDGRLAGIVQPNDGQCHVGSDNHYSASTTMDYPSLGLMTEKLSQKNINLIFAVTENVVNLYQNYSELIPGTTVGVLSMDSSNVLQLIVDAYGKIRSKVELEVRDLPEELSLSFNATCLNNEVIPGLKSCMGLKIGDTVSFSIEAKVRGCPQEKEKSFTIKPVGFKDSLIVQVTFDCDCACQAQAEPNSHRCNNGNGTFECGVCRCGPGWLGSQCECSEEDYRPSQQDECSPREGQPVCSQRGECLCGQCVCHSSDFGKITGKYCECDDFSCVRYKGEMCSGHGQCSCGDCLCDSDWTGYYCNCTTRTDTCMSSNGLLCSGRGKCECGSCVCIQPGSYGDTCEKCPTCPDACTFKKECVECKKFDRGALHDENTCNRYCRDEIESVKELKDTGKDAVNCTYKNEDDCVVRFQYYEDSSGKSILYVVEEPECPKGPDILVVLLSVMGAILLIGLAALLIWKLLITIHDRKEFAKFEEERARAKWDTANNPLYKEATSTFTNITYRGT
Chain of Integrin alpha-V/beta-3 (P06756 31-889 limits assumed): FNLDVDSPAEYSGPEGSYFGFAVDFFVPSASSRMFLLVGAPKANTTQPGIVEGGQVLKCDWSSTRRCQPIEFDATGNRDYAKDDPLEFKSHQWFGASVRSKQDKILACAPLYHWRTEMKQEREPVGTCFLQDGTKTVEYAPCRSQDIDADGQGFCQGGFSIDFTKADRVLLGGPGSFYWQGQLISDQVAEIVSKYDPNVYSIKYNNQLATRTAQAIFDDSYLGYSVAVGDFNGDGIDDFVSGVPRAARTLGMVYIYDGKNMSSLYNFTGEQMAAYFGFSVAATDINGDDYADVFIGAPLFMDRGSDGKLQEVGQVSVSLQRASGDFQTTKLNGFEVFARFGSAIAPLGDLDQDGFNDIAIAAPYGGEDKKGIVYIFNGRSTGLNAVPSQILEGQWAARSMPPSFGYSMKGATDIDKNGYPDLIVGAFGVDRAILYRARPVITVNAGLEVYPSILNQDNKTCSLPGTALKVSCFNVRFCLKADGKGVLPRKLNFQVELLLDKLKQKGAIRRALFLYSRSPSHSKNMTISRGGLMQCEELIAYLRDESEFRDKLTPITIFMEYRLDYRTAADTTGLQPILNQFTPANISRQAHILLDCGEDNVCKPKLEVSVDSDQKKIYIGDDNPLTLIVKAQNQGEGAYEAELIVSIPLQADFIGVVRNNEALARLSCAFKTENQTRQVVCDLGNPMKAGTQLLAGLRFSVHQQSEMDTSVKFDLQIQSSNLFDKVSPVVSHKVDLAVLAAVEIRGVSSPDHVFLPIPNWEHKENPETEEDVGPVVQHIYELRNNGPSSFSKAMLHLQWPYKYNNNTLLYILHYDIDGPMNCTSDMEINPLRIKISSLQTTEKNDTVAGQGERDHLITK
Chain of Integrin alpha-V/beta-3 (P06756 891-1048 limits assumed): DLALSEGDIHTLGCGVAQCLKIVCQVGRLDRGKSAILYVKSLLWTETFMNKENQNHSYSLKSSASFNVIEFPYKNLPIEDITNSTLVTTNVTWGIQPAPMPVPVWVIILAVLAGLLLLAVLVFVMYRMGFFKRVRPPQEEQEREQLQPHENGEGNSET

What is called IC50 is the midpoint of a concentration-inhibition curve. On to `N=C(N)NCCCC(=O)N1CCC[C@@H]1C(=O)N[C@@H](CCC(=O)O)C(=O)NCc1ccccc1`, for which the IC50 is 2600 nM. That is a single-digit micromolar value.
Take `N=C(N)NCCCC(=O)N1CCC[C@@H]1C(=O)N[C@@H](CC(=O)O)C(=O)NCc1ccccc1`: the IC50 is 26 nM. Against the preceding molecule, the IC50 is about 100-fold lower.
For `NC(N)=NCCCC(=O)N1CCC[C@@H]1C(=O)NCCC(=O)O`, inhibition was half-maximal at 1200 nM (IC50).
In the case of `CCCNC(=O)[C@H](CC(=O)O)NC(=O)[C@H]1CCCN1C(=O)CCCN=C(N)N`, inhibition was half-maximal at 20000 nM (IC50).
In the case of `CC(=O)N[C@@H](CC(=O)O)C(=O)N[C@@H](CCCN=C(N)N)C(=O)NCC(=O)N[C@@H](CC(=O)O)C(=O)N[C@@H](CO)C(=O)O` (Ac-DRGDS-OH) it was 20 nM; in that of `Cc1ccc(S(=O)(=O)N[C@@H](CCCNC(=N)N)C(=O)N2CCC[C@H]2C(=O)N[C@@H](CC(=O)O)C(=O)NCc2ccccc2)cc1`, 100000 nM; in that of `Cc1ccc(S(=O)(=O)N[C@@H](CCCN=C(N)N)C(=O)N2CCC[C@@H]2C(=O)N[C@@H](CC(=O)O)C(=O)NCc2ccccc2)cc1`, 150 nM.
`N=C(N)NCCC(=O)N1CCC[C@@H]1C(=O)N[C@@H](CCC(=O)O)C(=O)NCc1ccccc1` registered a half-inhibitory concentration (IC50) of 35 nM.
In the case of `N=C(N)NCCC(=O)N1CCC[C@@H]1C(=O)N[C@@H](CC(=O)O)C(=O)NCc1ccccc1`, the IC50 was > 100000 nM.
In the case of `NC(N)=NCCCCC(=O)N1CCC[C@@H]1C(=O)N[C@@H](CC(=O)O)C(=O)NCc1ccccc1` it was 230000 nM.
